# From paper PMC3348126, “Pharmacogenetics Meets Metabolomics: Discovery of Tryptophan as a New Endogenous OCT2 Substrate Related to Metformin Disposition” (PLoS ONE, 2012)
# How the values were obtained:
# Assay type in all cases: cell-based
# [1] = target: T1, Organic cation transporter 2 (OCT2) (Homo sapiens, UniProt O15244); test: inhibition of [3H]MPP+ uptake in OCT2-expressing oocytes
# T1 construct: gene SLC22A2; OCT2 expressed in oocytes
# T1 sequence (O15244 1-555): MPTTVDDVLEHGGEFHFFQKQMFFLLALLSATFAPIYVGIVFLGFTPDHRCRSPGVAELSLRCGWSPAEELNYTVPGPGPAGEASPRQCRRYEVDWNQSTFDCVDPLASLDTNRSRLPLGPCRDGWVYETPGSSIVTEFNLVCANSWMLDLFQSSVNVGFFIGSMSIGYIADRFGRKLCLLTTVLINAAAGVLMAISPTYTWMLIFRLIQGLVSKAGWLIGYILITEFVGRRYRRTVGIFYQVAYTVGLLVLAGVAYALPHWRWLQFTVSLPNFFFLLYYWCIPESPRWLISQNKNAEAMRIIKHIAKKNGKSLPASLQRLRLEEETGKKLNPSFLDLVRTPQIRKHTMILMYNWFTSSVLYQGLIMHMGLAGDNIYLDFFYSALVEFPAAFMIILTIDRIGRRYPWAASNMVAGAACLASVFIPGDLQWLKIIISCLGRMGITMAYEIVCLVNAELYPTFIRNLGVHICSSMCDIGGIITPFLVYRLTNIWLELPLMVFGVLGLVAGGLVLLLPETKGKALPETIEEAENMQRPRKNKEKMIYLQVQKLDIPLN
# [2] = target: T2, Organic cation transporter 2 (OCT2) 808G>T variant (Homo sapiens, UniProt O15244); test: [3H]tryptophan uptake ([…]) in oocytes expressing the variant
# T2 construct: gene SLC22A2; OCT2 808G>T variant expressed in oocytes
# T2 sequence (O15244 1-555): T1 sequence (O15244 1-555)
# [3] = target: T3, Organic cation transporter 2 (OCT2) (Homo sapiens, UniProt O15244); test: inhibition of [3H]MPP+ uptake and direct [3H]tryptophan uptake in OCT2-expressing oocytes
# T3 construct: gene SLC22A2
# [4] = target: T4, OCT1 (Homo sapiens, UniProt O15245); test: inhibition of OCT1-mediated [3H]MPP+ uptake and direct tryptophan uptake in oocytes; settings: read-out: % inhibition at 1 mM
# T4 construct: gene SLC22A1; OCT1 expressed in oocytes (pcDNA3.1-OCT1)
# T4 sequence (O15245 1-554): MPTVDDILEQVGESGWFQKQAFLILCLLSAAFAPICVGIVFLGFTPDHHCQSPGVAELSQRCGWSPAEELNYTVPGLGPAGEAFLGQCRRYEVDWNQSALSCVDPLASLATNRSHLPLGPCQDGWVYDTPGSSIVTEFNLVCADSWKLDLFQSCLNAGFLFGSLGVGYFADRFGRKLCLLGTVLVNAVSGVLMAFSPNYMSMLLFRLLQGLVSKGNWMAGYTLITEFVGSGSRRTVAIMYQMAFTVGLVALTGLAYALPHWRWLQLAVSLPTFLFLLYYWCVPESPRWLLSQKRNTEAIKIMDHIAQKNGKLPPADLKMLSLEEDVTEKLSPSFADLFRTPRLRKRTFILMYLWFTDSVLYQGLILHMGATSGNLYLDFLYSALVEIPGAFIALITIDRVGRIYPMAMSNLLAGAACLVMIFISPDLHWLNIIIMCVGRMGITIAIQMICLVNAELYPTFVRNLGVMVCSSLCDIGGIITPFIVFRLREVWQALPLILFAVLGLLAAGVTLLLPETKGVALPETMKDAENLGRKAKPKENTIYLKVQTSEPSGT
# [5] = target: T3, Organic cation transporter 2 (OCT2); test: [3H]MPP+ uptake ([…]) in OCT2-expressing oocytes, water-injected background subtracted
smiles,measurement,setting,value
O=c1ccn([C@@H]2O[C@H](CO)[C@@H](O)[C@H]2O)c(=O)[nH]1 [uridine],IC50,[1],51.5 mM
N[C@@H](Cc1c[nH]c2ccccc12)C(=O)O [L-tryptophan],[3H]tryptophan uptake (100 nM) in oocytes expressing the variant,[2],0.14 fmol/min/oocyte
same,IC50,[3],6.11 mM
same,inhibition at 1000 µM,[4],50%
C[n+]1ccc(-c2ccccc2)cc1 [MPP+],"[3H]MPP+ uptake (18.5 nM) in OCT2-expressing oocytes, water-injected background",[5],2.9 fmol/min/oocyte
